The text below walks through data of patent US11319343B2, “Method of treatment” (ROYAL MELBOURNE INSTITUTE OF TECHNOLOGY, priority 2017, dated 2022).

The nature of data set [1]: Cell viability after C98i peptides. Format: cell-based.
The target of data set [2] is T1, TLR7 (Mus musculus, UniProt P58681).
T1 construct: endogenous in cells; host or cells: immortalized bone marrow-derived macrophages (BMDMs) or RAW264.7 cells
T1 sequence (P58681 27-1050): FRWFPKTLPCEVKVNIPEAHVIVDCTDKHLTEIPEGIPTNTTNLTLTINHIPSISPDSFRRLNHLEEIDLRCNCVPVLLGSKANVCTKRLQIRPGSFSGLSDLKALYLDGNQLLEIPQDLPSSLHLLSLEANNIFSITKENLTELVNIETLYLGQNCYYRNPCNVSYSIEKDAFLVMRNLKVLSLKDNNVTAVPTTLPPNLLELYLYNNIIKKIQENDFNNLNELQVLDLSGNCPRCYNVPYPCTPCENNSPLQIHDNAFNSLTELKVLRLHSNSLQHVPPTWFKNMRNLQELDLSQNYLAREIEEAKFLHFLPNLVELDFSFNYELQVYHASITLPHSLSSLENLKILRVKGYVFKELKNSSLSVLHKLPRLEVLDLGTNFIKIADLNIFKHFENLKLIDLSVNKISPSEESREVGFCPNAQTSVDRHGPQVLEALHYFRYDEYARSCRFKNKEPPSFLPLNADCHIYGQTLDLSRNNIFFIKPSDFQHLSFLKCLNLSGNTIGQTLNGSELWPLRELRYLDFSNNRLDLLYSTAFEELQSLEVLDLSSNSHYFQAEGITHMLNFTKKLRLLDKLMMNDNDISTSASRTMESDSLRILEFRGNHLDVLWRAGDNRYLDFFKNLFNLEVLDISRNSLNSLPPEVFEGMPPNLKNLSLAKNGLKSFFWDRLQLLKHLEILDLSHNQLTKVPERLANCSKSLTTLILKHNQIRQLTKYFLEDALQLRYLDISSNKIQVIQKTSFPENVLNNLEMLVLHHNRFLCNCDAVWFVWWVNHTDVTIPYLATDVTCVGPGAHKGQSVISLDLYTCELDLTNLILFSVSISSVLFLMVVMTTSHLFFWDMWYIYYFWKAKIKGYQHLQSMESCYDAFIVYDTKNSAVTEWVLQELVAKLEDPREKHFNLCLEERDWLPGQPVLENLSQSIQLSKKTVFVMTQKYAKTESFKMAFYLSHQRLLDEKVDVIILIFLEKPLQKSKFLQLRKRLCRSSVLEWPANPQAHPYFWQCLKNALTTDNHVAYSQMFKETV
The class given is cell-based. The settings on record: for IFN-β, IL-1β, TNF-α and IL-6 expression in response to imiquimod: apocynin 300 μM pre-treatment, SOD 300 U/mL (basal or imiquimod-stimulated), catalase 1000 U/mL.

The subject of another data set is NOX2 oxidase. Put plainly: NOX2 oxidase assembly (NOX2-p47phox association), confocal fluorescence microscopy. The settings on record: pre-treatment: Dynasore 100 μM, bafilomycin A 100 nM, PD98059 30 μM.
In data set [3] the test system is influenza A virus strain HKx31 (H3N2). Format: cell-based.
For data set [4], the system named is mouse primary alveolar macrophages. The class given is cell-based.
The next data set concerns TLR9. Format: cell-based, mouse. The settings on record: CpG 10 μg/mL; apocynin.
Another data set has as its system TLR3. Format: cell-based, mouse. The settings on record: poly I:C 25 μg/mL; apocynin pre-treatment.
The next data set deals with pERK1/2. Put plainly: Cytosolic pERK1/2 activity, FRET biosensor. The settings on record: TLR7-dependent manner. The class given is cell-based, mouse.
A further data set deals with TLR7 responses. Format: in vivo. The settings on record: imiquimod 50 μg/mouse intranasally, 24 h.
Data set [5] concerns human alveolar macrophages. Format: cell-based. The settings on record: imiquimod 10 μg/mL, AMs from human.
The test system of data set [6] is macrophage mitochondrial superoxide. Put plainly: Macrophage mitochondrial superoxide production. The settings on record: TLR7 activation with imiquimod. Format: cell-based.
In a further data set the test system is PKC. Put plainly: Cytosolic PKC activity, FRET biosensor cytoCKAR. Format: cell-based, mouse. The settings on record: WT macrophages, imiquimod, within 5 min.
The next data set has as its target T2, xanthine oxidase (Bos taurus, UniProt P80457).
T2 construct: purchased Sigma X1875
Put plainly: Xanthine/xanthine oxidase cell-free superoxide assay (ROS scavenging). The class given is biochemical. The settings on record: 1 μM. The method, then: Briefly, Krebs-HEPES buffer containing L-O12 (100 μM) was added into a 96-well Optiview plate. Following this, 0.1% w/v DMSO, unconjugated gp91dstat (Ugp91ds-TAT, 1 μM) or cholestanol-conjugated gp91ds-TAT (1 μM) were added in combination with Xanthine (100 μM). Immediately after xanthine oxidase (0.03 U/mL) was added, photon emission [relative light units (RLU)/s] was detected using the Chameleon (Trademark) luminescence detector (Hidex, model 425105, Finland) and recorded from each well for 1 s over 60 cycles. Individual data points for each group were derived from the average values of the three replicates minus the respective blank controls. Data are represented as raw values.

The test system of another data set is HKx31 influenza A virus. The settings on record: mouse, in vivo.
For data set [7], the target named is T1, TLR7. Nature of the data set: TLR7 agonist response (cytokine expression) in bone marrow derived macrophages with C98i peptides. The class given is cell-based. The settings on record: for inhibition of TLR7 agonist, imiquimod, response in vitro (IL-6 mRNA expression): peptides 100 μM + 10 μg/ml imiquimod, no TAT.
Data set [8] has as its system TLR7. Format: cell-based, mouse.

Residues, ends and D or L forms follow the SMILES beside them. No end group written: not given here.

T2 sequence (P80457 whole entry): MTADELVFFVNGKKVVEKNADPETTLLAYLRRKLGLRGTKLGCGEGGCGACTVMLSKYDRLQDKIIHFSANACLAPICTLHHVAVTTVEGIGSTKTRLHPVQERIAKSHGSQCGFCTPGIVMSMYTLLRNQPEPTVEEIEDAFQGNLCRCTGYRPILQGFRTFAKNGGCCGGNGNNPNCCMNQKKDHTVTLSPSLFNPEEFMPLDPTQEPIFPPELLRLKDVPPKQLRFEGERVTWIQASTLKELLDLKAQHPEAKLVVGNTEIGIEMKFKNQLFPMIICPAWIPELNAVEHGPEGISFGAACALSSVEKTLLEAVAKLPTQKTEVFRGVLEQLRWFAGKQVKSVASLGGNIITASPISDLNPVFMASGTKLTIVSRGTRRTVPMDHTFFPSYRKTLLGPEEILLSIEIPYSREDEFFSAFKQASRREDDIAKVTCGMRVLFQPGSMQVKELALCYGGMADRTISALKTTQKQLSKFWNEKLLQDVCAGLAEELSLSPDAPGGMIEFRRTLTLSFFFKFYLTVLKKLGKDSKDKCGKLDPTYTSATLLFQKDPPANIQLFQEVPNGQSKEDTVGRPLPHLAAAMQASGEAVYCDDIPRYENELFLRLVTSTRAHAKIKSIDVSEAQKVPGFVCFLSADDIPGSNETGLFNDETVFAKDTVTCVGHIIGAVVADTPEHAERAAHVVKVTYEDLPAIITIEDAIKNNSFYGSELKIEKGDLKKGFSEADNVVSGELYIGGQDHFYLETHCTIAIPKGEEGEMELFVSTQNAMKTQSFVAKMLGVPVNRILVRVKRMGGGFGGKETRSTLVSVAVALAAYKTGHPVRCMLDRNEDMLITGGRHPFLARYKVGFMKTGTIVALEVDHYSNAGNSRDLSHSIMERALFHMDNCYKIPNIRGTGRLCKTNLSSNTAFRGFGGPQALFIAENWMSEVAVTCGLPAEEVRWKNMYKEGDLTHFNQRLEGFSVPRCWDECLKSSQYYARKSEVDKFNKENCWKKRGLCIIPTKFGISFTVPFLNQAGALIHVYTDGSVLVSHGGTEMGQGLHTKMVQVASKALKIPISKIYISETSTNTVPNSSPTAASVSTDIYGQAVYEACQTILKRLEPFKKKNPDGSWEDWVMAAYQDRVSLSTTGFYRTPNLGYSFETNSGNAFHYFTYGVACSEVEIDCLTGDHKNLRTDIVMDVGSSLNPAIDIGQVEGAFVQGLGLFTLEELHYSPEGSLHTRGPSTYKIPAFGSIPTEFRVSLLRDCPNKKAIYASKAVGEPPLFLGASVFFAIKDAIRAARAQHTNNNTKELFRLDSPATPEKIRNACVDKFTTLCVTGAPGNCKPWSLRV

Turning to `CC(C)C[C@H](NC(=O)[C@@H](NC(=O)[C@@H]1CCCN1C(=O)[C@@H](NC(=O)[C@H](CS)NC(=O)[C@H](CC(N)=O)NC(=O)[C@H](CS)NC(=O)[C@H](CCCNC(=N)N)NC(=O)[C@H](CC(C)C)NC(=O)[C@@H](N)CC(=O)O)C(C)C)C(C)C)C(N)=O` [C98i no TAT, DLRCNCVPVL-NH2] (H-DLRCNCVPVL-NH2), the cell viability result in data set [1] is “no adverse effect”.

Consider `CC(C)C[C@H](NC(=O)[C@@H](NC(=O)[C@@H]1CCCN1C(=O)[C@@H](NC(=O)[C@H](CS)NC(=O)[C@H](CC(N)=O)NC(=O)[C@H](CS)NC(=O)[C@H](CCCNC(=N)N)NC(=O)[C@H](CC(C)C)NC(=O)[C@H](CC(=O)O)NC(=O)[C@H](CCCNC(=N)N)NC(=O)[C@H](CCCNC(=N)N)NC(=O)[C@H](CCCNC(=N)N)NC(=O)[C@H](CCC(N)=O)NC(=O)[C@H](CCCNC(=N)N)NC(=O)[C@H](CCCNC(=N)N)NC(=O)[C@H](CCCCN)NC(=O)[C@H](CCCCN)NC(=O)[C@H](CCCNC(=N)N)NC(=O)CNC(=O)[C@@H](N)Cc1ccc(O)cc1)C(C)C)C(C)C)C(N)=O` [C98i] (H-YGRKKRRQRRRDLRCNCVPVL-NH2), for which, in data set [1], the cell viability entry is “no adverse effect”.

Take `O=C(N/N=C/c1ccc(O)c(O)c1)c1cc2ccccc2cc1O` [Dynasore]: at TLR7 [2] (WT macrophages treated with Dynasore (100 μM)), the “catalase-dependent increase in cytokines” value is on record as “significantly suppressed”. Also, in the data set on NOX2 oxidase, the “co-location (association) of NOX2 and p47phox caused by influenza virus” value (from here on “co-location (association)”) is “reduced”. In data set [3], the “influenza nucleoprotein (NP) fluorescence” value is “almost abolished”.

For the compound `CC(=O)c1ccc2c(c1)Nc1ccccc1S2` [ML171], in data set [4], the “endosomal ROS production (OxyBURST) in response to influenza A virus” value (from here on “endosomal ROS production (OxyBURST)”) was “unaffected”.

As to `COc1cccc(-c2cc(=O)c3ccccc3o2)c1N` [PD98059], the “endosomal ROS production (OxyBURST)” value in data set [4] is given as “did not influence”. In addition, the “co-location (association)” value with NOX2 oxidase is on record as “did not influence”.

For `COc1cc(C(C)=O)ccc1O` [apocynin, 4′-Hydroxy-3′-methoxy acetophenone], in the data set on TLR9, the “increases in IFN-β, IL-1β, TNF-α and IL-6 triggered by CpG” value is given as “unaffected”. For the same compound, at TLR7 [2] (WT macrophages), the “IFN-β, IL-1β, TNF-α and IL-6 expression in response to imiquimod” value is given as “significantly enhanced”. The “IFN-β, IL-1β, TNF-α and IL-6 expression in response to poly I:C” value in the data set on TLR3 is “suppressed”.

As to `CO/C1=C\C(C)=C\[C@@H](C)[C@@H](O)[C@@H](C)C/C(C)=C/C=C/[C@H](OC)[C@@H]([C@@H](C)[C@@H](O)[C@H](C)[C@@]2(O)C[C@@H](O)[C@H](C)[C@@H](C(C)C)O2)OC1=O` [bafilomycin A], in data set [4], the “NOX2 dependent ROS production in response to virus infection and to imiquimod” value is “abolished”; the “endosomal ROS production (OxyBURST)” value was “abolished the LysoTracker fluorescence and endosomal ROS production”. For the same compound, the “co-location (association)” value with NOX2 oxidase is given as “reduced”.

Turning to `CC(C)Cn1cnc2c(N)nc3ccccc3c21` [imiquimod], the “cytosolic pERK1/2” value in the data set with pERK1/2 is “increased cytosolic pERK1/2”. For the same compound, the “lung IFN-β, IL-1β, IL-6 and TNF-α” value with TLR7 responses (NOX2−/y mice) was “elevated levels”. In addition, the airway inflammation result in the data set with TLR7 responses (WT and NOX2−/y mice) was “no discernible alterations”. In addition, the “endosomal ROS production caused by the agonist” value in data set [4] and in data set [5] was “markedly increased endosomal ROS” throughout. For the same compound, the “IFN-β, IL-1β, TNF-α and IL-6 expression” value at TLR7 [2] (imiquimod alone, WT macrophages) is listed as “significant elevation”. Also, in data set [6], the “macrophage mitochondrial superoxide production” value is “failed to increase”. Also, the “cytosolic PKC activity” value in the data set with PKC is listed as “elevated cytosolic PKC activity”.

On to “Ac-Asp(OChol)-PEG4-PEG3-PEG4-gp91-NH2 [Cgp91ds-TAT]”, for which the ROS scavenging properties result in the data set with xanthine oxidase is given as “not attributed to enhanced ROS scavenging properties”. Further, in the data set on HKx31 influenza A virus, the airway inflammation result is given as “almost abolished”, the “decrease in lung influenza A viral burden” value is ~10,000 fold, the “lung IFN-β mRNA levels compared to the control virus group” value is “significantly increased” and the “reduction in airways inflammation” value is roughly 40%. Also, in the data set with HKx31 influenza A virus, the “superoxide production in BALF inflammatory cells” value was “almost abolished” and the “weight loss caused by influenza A virus at day 3” value is listed as “significantly reduced the weight loss”.

In the case of RANA-NH2, in the data set with TLR7 [7], the “inhibition of TLR7 agonist, imiquimod, response in vitro (IL-6 mRNA expression)” value (from here on “inhibition of TLR7 agonist, imiquimod”) was “none”.

For the compound RANC-NH2, in the data set with TLR7 [7], the “inhibition of TLR7 agonist, imiquimod” value is on record as “none”.

As to RCNA-NH2, the “inhibition of TLR7 agonist, imiquimod” value with TLR7 [7] is listed as “none”.

“RCNC—NH2 (RCNC-NH2; cysteine pairing not given here)”: in the data set with TLR7 [7], the “inhibition of TLR7 agonist, imiquimod” value is on record as “none”.

“YGRKK-RRQRR-RCSTR-IRRQL-NH2 [Ugp91ds-TAT]”: in the data set with HKx31 influenza A virus, the “decrease in lung influenza A viral burden” value is ~10,000 fold, the “lung IFN-β mRNA levels compared to the control virus group” value is recorded as “failed to do so”, the “superoxide production in BALF inflammatory cells” value is recorded as “almost abolished” and the “weight loss caused by influenza A virus at day 3” value is given as “significantly reduced the weight loss”.

As for “YGRKKRRQRRRCLVPNDCRLV-NH2 [scrambled C98i]”, the “inhibition of TLR7 agonist (imiquimod)” value with TLR7 [7] (scrambled sequence with TAT) was “not able to inhibit”.

Regarding catalase, the “IFN-β and IL-1β expression” value at TLR7 [2] (1 hr pulse catalase 1000 U/mL, after 24 h, WT macrophages) is given as “significant elevations”. For the same compound, on TLR7 [2] (WT macrophages), the “IFN-β, IL-1β, TNF-α and IL-6 expression in response to imiquimod” value is listed as “significantly increased”. In addition, the “cytokine expression in cells expressing mutated TLR7” value in the data set on TLR7 [8] is listed as “little or no effect”. In the data set with TLR7 [8] (catalase), the “TLR7, TREML4 or NLRP3 expression” value is recorded as “no effect”. Moreover, the “cytokine expression in cells with WT TLR7 or TLR7C445A” value in the data set on TLR7 [8] (catalase 1000 U/mL, transfected TLR7−/− macrophages) is “markedly increased”.
